Values after ≈ are worked out from the molar mass of the structure shown. Counter-ions that a name gives are not always drawn. Like-named read-outs stand apart in the source and are kept apart here.
Experiments:
Escherichia coli No. 29 [1] = assay: Minimum Inhibitory Concentration "in vitro" (Table 1); type: cell-based
Escherichia coli GN = assay: as above; type: cell-based
Sta. aureus 209P JC-1 = assay: antibacterial spectrum, MIC (Table 2); type: cell-based; settings: Staphylococcus aureus, nutrient agar, 37° C., 20 hours
Sta. aureus Smith (I) = assay: antibacterial spectrum, MIC (Table 2); type: cell-based; settings: Staphylococcus aureus, nutrient agar, 37° C., 20 hours
B. subtilis ATCC 6633 = assay: antibacterial spectrum, MIC (Table 2); type: cell-based; settings: Bacillus subtilis, ATCC6633, nutrient agar, 37° C., 20 hours
E. coli W 3630 RGN 823 = assay: microbe, parasite or virus in culture; type: cell-based; settings: Escherichia coli, W3630RGN823, 20 h
E. coli W 3630 RGN 238 = assay: microbe, parasite or virus in culture; type: cell-based; settings: Escherichia coli, W3630RGN238, 20 h
E. coli ML 1410 = assay: antibacterial spectrum, MIC (Table 2); type: cell-based; settings: Escherichia coli, ML1410, nutrient agar, 37° C., 20 hours
Kleb. pneumoniae GN 69 = assay: antibacterial spectrum, MIC (Table 2); type: cell-based; settings: Klebsiella pneumoniae, GN69, nutrient agar, 37° C., 20 hours
Pro. mirabilis GN 79 = assay: antibacterial spectrum, MIC (Table 2); type: cell-based; settings: Proteus mirabilis, GN79, nutrient agar, 37° C., 20 hours
Sal. typhimurium LT-2 = assay: antibacterial spectrum, MIC (Table 2); type: cell-based; settings: Salmonella enterica, nutrient agar, 37° C., 20 hours
[2] = tested on: Shigella dysenteriae Shigae; assay: microbe, parasite or virus in culture; type: cell-based; settings: 20 h
Pro. vulgaris GN 76 = assay: antibacterial spectrum, MIC (Table 2); type: cell-based; settings: Proteus vulgaris, GN76, nutrient agar, 37° C., 20 hours
Pro. morganii 1510 = assay: antibacterial spectrum, MIC (Table 2); type: cell-based; settings: Morganella morganii, nutrient agar, 37° C., 20 hours
Citro freundii GN 346/16 = assay: antibacterial spectrum, MIC (Table 2); type: cell-based; settings: nutrient agar, 37° C., 20 hours
Ps. aeruginosa MB-3829 = assay: antibacterial spectrum, MIC (Table 2); type: cell-based; settings: Pseudomonas aeruginosa
Ps. cepacia M-0527 = assay: antibacterial spectrum, MIC (Table 2); type: cell-based; settings: Burkholderia cepacia, M0527, nutrient agar, 37° C., 20 hours
Escherichia coli No. 29 [3] = assay: therapeutic treatment of bacterial infection in mice, ED50; type: in vivo; settings: male ICR mice; E. coli No. 29 intraperitoneally, 2.0×10^7 cells per mouse; subcutaneous injection 30 minutes after inoculation
Procedure: Thirty minutes after the inoculation, the mice were each treated by subcutaneous injection of 0.2 ml of a solution of the test compound in physiological saline. In this way, the ED50 value of the test compounds was determined. Cefoxitin and the 6059-S Compound (di-Na salt) were also tested in the same manner as above, for the comparison purpose.

Row | SMILES | MIC (Escherichia coli No. 29 [1]) | MIC (Escherichia coli GN) | MIC (Sta. aureus 209P JC-1) | MIC (Sta. aureus Smith (I)) | MIC (B. subtilis ATCC 6633) | MIC (E. coli W 3630 RGN 823) | MIC (E. coli W 3630 RGN 238) | MIC (E. coli ML 1410) | MIC (Kleb. pneumoniae GN 69) | MIC (Pro. mirabilis GN 79) | MIC (Sal. typhimurium LT-2) | MIC [2] | MIC (Pro. vulgaris GN 76) | MIC (Pro. morganii 1510) | MIC (Citro freundii GN 346/16) | MIC (Ps. aeruginosa MB-3829; MB3829, Ps. aeruginosa MB-3829, nutrient agar, 37° C., 20 hours, read-out: MIC) | MIC (Ps. cepacia M-0527) | ED50 value (Escherichia coli No. 29 [3]) | MIC (Ps. aeruginosa MB-3829; MB3829, 20 h)
1 | CO[C@@]1(NC(=O)CSC[C@@H](N)C(=O)O)C(=O)N2C(C(=O)O)=C(CSc3nnnn3C)CO[C@@H]21 [Example 1, 7β-[(2D-2-amino-2-carboxy)ethylthioacetoamido]-7α-methoxy-3-[(1-methyl-1H-tetrazol-5-yl)thiomethyl]-1-oxadethia-3-cephem-4-carboxylic acid sodium salt] | 0.39 µg/mL | 0.39 µg/mL | 3.13 µg/mL | 1.56 µg/mL | 1.56 µg/mL | ≤ 0.025 µg/mL | 0.39 µg/mL | 0.39 µg/mL | 0.78 µg/mL | 0.2 µg/mL | 0.39 µg/mL | 0.2 µg/mL | 0.39 µg/mL | 0.78 µg/mL | 0.78 µg/mL | 12.5 µg/mL | 3.13 µg/mL | 0.03 mg/mouse | 
2 | CO[C@@]1(NC(=O)CSC[C@@H](N)C(=O)O)C(=O)N2C(C(=O)[O-])=C(C[n+]3ccc(C(N)=O)cc3)CO[C@@H]21 [Example 3, 7β-[(2D-2-Amino-2-carboxy)ethylthioacetoamido]-7α-methoxy-3-[(4-carbamoylpyridinium)methyl]-1-oxadethia-3-cephem-4-carboxylic acid] | 0.78 µg/mL (≈ 1.53 µM) | 0.78 µg/mL (≈ 1.53 µM) |  |  |  |  |  |  |  |  |  |  |  |  |  |  |  |  | 
3 | Cn1nnnc1SCC1=C(C(=O)O)N2C(=O)[C@@H](NC(=O)CSC[C@@H](N)C(=O)O)[C@H]2OC1 [Example 2, 7β-[(2D-2-Amino-2-carboxy)ethylthioacetoamido]-3-[(1-methyl-1H-tetrazol-5-yl)thiomethyl]-1-oxadethia-3-cephem-4-carboxylic acid sodium salt] | 0.39 µg/mL | 3.13 µg/mL |  |  |  |  |  |  |  |  |  |  |  |  |  |  |  | 0.05 mg/mouse | 
4 | CO[C@@]1(NC(=O)C(C(=O)O)c2ccc(O)cc2)C(=O)N2C(C(=O)O)=C(CSc3nnnn3C)CO[C@@H]21 (stereo partly drawn) [6059-S Compound, 7β-(α-p-hydroxyphenyl-α-carboxyacetoamido)-7α-methoxy-3-[(1-methyl-1H-tetrazole-5-yl)thiomethyl]-1-oxadethia-3-cephem-4-carboxylic acid, reference compound] |  |  | 6.25 µg/mL (≈ 12 µM) | 6.25 µg/mL (≈ 12 µM) | 25 µg/mL (≈ 48 µM) | 0.05 µg/mL (≈ 0.0961 µM) | 0.2 µg/mL (≈ 0.384 µM) | 0.1 µg/mL (≈ 0.192 µM) | 0.39 µg/mL (≈ 0.749 µM) | 0.39 µg/mL (≈ 0.749 µM) | 0.2 µg/mL (≈ 0.384 µM) | 0.1 µg/mL (≈ 0.192 µM) | 0.39 µg/mL (≈ 0.749 µM) | 0.39 µg/mL (≈ 0.749 µM) | 0.1 µg/mL (≈ 0.192 µM) |  | 6.25 µg/mL (≈ 12 µM) | 0.16 mg/mouse | 3.13 µg/mL (≈ 6.01 µM)
5 | CO[C@@]1(NC(=O)Cc2cccs2)C(=O)N2C(C(=O)O)=C(COC(N)=O)CS[C@@H]21 [Cefoxitin, reference compound] |  |  |  |  |  |  |  |  |  |  |  |  |  |  |  |  |  | 0.50 mg/mouse | 
